Experimental findings from ChEMBL document CHEMBL3244355, “Quinolone antimicrobial agents. 2. Methylenedioxy positional isomers of oxolinic acid” (1979) are described below.

One test relates to Acinetobacter sp. Nature of the test: Antimicrobial activity against Acinetobacter sp. 2347 assessed as growth inhibition by agar dilution-streak method. In kind it is functional. On the technique in general: Agar dilution tests growth on a series of plates holding different concentrations.
In another test the test system is Shigella sonnei. Nature of the test: Antimicrobial activity against Shigella sonnei ATCC 9290 assessed as growth inhibition by agar dilution-streak method. Type of test: functional.
The next test has as its system Pseudomonas aeruginosa. Nature of the test: Antimicrobial activity against Pseudomonas aeruginosa BMH 1 assessed as growth inhibition by agar dilution-streak method. In kind it is functional.
The next test has as its system Serratia marcescens. Nature of the test: Antimicrobial activity against Serratia marcescens ATCC 4003 assessed as growth inhibition by agar dilution-streak method. Type of test: functional.
The next test deals with Proteus vulgaris. Nature of the test: Antimicrobial activity against Proteus vulgaris ATCC 6897 assessed as growth inhibition by agar dilution-streak method. In kind it is functional.
For another test, the system named is Enterococcus faecalis. Nature of the test: Antimicrobial activity against Streptococcus faecalis ATCC 8043 assessed as growth inhibition by agar dilution-streak method. Type of test: functional.
The next test concerns Escherichia coli. Nature of the test: Antimicrobial activity against Escherichia coli ATCC 26 assessed as growth inhibition by agar dilution-streak method. In kind it is functional.
A further test concerns Salmonella typhi. Nature of the test: Antimicrobial activity against Salmonella typhi ATCC 9992 assessed as growth inhibition by agar dilution-streak method. Type of test: functional, Salmonella enterica subsp. enterica serovar Typhi. The following applies: Salmonella enterica.
A further test concerns Staphylococcus aureus. Nature of the test: Antimicrobial activity against Staphylococcus aureus ATCC 6538P assessed as growth inhibition by agar dilution-streak method. In kind it is functional.
A further test concerns Klebsiella pneumoniae. Nature of the test: Antimicrobial activity against Klebsiella pneumoniae ATCC 8045 assessed as growth inhibition by agar dilution-streak method. In kind it is functional.
A further test concerns Proteus mirabilis. Nature of the test: Antimicrobial activity against Proteus mirabilis Finland 9 assessed as growth inhibition by agar dilution-streak method. In kind it is functional.

Values after ≈ are worked out from the molar mass of the structure shown. Where only a bound is given, the exact number is not on record here.

As for `CCn1cc(C(=O)O)c(=O)c2ccc3c(c21)OCO3`, the MIC in the test on Acinetobacter sp. is 6.25 µg/mL (≈ 23.9 µM); in the test with Shigella sonnei, 3.13 µg/mL (≈ 12 µM); in the test on Pseudomonas aeruginosa, over 100 µg/mL; in the test with Serratia marcescens, 3.13 µg/mL (≈ 12 µM); with Proteus vulgaris it was 3.13 µg/mL (≈ 12 µM); in the test on Enterococcus faecalis it was over 100 µg/mL. Moreover, the MIC with Escherichia coli was 6.25 µg/mL (≈ 23.9 µM); with Salmonella typhi, 12.5 µg/mL (≈ 47.9 µM); in the test with Staphylococcus aureus it was 25 µg/mL (≈ 95.7 µM); in the test on Klebsiella pneumoniae, 1.56 µg/mL (≈ 5.97 µM); in the test on Proteus mirabilis it was 50 µg/mL (≈ 191 µM).

In the case of `CCn1cc(C(=O)O)c(=O)c2cc3c(cc21)OCO3` [OXOLINIC ACID], the MIC in the test with Acinetobacter sp. was 0.4 µg/mL (≈ 1.53 µM); with Shigella sonnei, 0.2 µg/mL (≈ 0.766 µM); in the test on Pseudomonas aeruginosa, 12.5 µg/mL (≈ 47.9 µM); with Serratia marcescens, 0.1 µg/mL (≈ 0.383 µM); with Proteus vulgaris it was over 0.05 µg/mL; in the test on Enterococcus faecalis it was 25 µg/mL (≈ 95.7 µM). In addition, the MIC in the test with Escherichia coli was 0.1 µg/mL (≈ 0.383 µM); in the test with Salmonella typhi, 0.2 µg/mL (≈ 0.766 µM); in the test with Staphylococcus aureus, 0.78 µg/mL (≈ 2.99 µM); in the test on Klebsiella pneumoniae, over 0.05 µg/mL; with Proteus mirabilis it was 0.78 µg/mL (≈ 2.99 µM).

As for `CCn1cc(C(=O)O)c(=O)c2c3c(ccc21)OCO3`, the minimum inhibitory concentration (MIC) is over 100 µg/mL with Acinetobacter sp.; over 100 µg/mL with Shigella sonnei; over 100 µg/mL in the test with Pseudomonas aeruginosa; over 100 µg/mL in the test on Serratia marcescens; 100 µg/mL (≈ 383 µM) in the test with Proteus vulgaris; over 100 µg/mL with Enterococcus faecalis. The MIC in the test on Escherichia coli was over 100 µg/mL; in the test on Salmonella typhi, over 100 µg/mL; in the test with Staphylococcus aureus it was over 100 µg/mL; with Klebsiella pneumoniae, 25 µg/mL (≈ 95.7 µM); in the test with Proteus mirabilis, over 100 µg/mL.

One may read the MIC as the lowest concentration that inhibits growth of the organism.
